Laboratory results taken from paper PMC11428279, “Exploring Structure–Activity Relationships and Modes of Action of Laterocidine” (ACS Central Science, 2024).
In brackets after ≈: the same amount, converted by molar mass. Like-named read-outs stand apart in the source and are kept apart here. Bridge positions count the residues as written; N and C are the ends. Square brackets hold non-standard residues; d marks the D form. Peptide text beside a SMILES is read from it. * marks the point of attachment. Octanoyl(7-Me) = CC(C)CCCCCC(=O)*; dOrn = NCCC[C@@H](N)C(=O)O; Orn = NCCC[C@H](N)C(=O)O

Assays:
[1] = test system: P. aeruginosa FADDI-PA070; test: Neutropenic murine bloodstream infection model; type: in vivo, P. aeruginosa in mice; conditions: 8 mg/kg iv (free base) 2 h postinoculation, neutropenic mice, 4 h time point, N = 3, mean
Procedure: (§1) All animal studies were approved by the Monash University Animal Ethics Committee and involved female Swiss mice (22–28 g, 7-week-old) housed in microisolators within a PC2 animal laboratory. Mice were kept under a 12/12 h dark/light cycle at 20–24 °C and 50–70% ambient humidity.
The neutropenic bloodstream infection model was undertaken as previously described.[39] Mice were rendered neutropenic through intraperitoneal injections of cyclophosphamide administered 4 days (150 mg/kg) and 1 day (100 mg/kg) prior to inoculation. Bloodstream infection was established by administering a 50 μL bolus of early log-phase bacterial suspension (4 × 10^8 CFU/mL). Laterocidine, peptide 11, and polymyxin B solutions were prepared in sterile saline at a concentration of 1 mg/mL (free base). Two hours postinoculation, mice (n = 3) were injected intravenously with either polymyxin B at 4 mg/kg (free base), peptide 11 at 8 mg/kg (free base), laterocidine at 8 mg/kg (free base), or saline (control mice). Blood was collected immediately after (0 h) and 4 h after drug administration, serially diluted with sterile saline, and appropriately diluted samples manually plated on nutrient agar prior to overnight incubation at 37 °C. Colonies were counted manually and the bacterial load (log10 CFU/mL) in the blood of each mouse calculated. In vivo efficacy was calculated as the difference between the log10 CFU/mL blood values of treated and control mice 4 h postdosing (Δlog10 CFU/mL blood = log10 [treated] CFU/mL blood–log10[control] CFU/mL blood).[54]

P. aeruginosa PAO1 [2] = test: MIC; type: cell-based; conditions: polymyxin-susceptible reference strain
P. aeruginosa PAO1R [3] = test: MIC; type: cell-based; conditions: polymyxin-resistant paired strain of PAO1
female Swiss mice = test: Acute toxicity in mice (maximum tolerable dose); type: in vivo; conditions: intravenous bolus via lateral tail vein, free base, N = 3
Procedure: as §1
For the acute toxicity studies, peptide 11 and laterocidine solutions were prepared in 0.9% saline and stored at 4 °C before use. All mice were administered an intravenous bolus of one peptide (mg/kg free base) via a lateral tail vein (≤0.1 mL). Following the injection, mice were released back into their respective home cages and individually monitored for 24 h for signs of clinical toxicity. Mice displaying any signs of toxicity were humanely euthanized according to the recommended Euthanasia/Humane Experimental End point Criteria.

[4] = test system: A. baumannii 5075 (wild type); test: MIC; type: cell-based
P. aeruginosa PAO1 [5] = test: Flow cytometry of bacterial membrane integrity, respiration, polarity and oxidative stress; type: cell-based; conditions: 1 h exposure
Procedure: The live cell impermeant fluorophore propidium iodide (PI) (Sigma-Aldrich, Castle Hill, NSW, Australia) was used to assess loss of membrane integrity (Ex/Em 488/660–690 nm) and the redox probe 5-cyano-2,3-ditolyl tetrazolium chloride (CTC) (Sigma-Aldrich, Castle Hill, NSW, Australia) used to assess loss of cellular respiration (Ex/Em 450/630 nm). […] Intracellular oxidative stress was measured using CR-G (CellROX Green) (Sigma-Aldrich, Castle Hill, NSW, Australia, Ex/Em 488/660–690 nm).[58] Appropriately diluted samples (600 μL) were stained separately with 12.5 μM PI, 2.5 mM CTC, 6 μM DiBAC, and 2.5 μM CR-G. Samples stained with both PI and DiBAC were incubated for 2 min and immediately analyzed. Samples stained with both CTC and CR-G were incubated for 45 min at RTP, and excess dye was pelleted out prior to analysis. Fluorescence intensity data were analyzed and log transformed using the NovoExpress software (V2.1, ACEA Biosciences, USA).[34]

A. baumannii 5075D = type: cell-based; conditions: lacks lipid A in the outer membrane
E. coli O111:B4 LPS = test: 1H NMR titration with LPS; type: binding; conditions: 23 °C, 50 mM acetate buffer pH 4.5, 1.5 mM peptide, 16 μL of 10 mg/mL LPS
Procedure: NMR samples contained 0.75–2.0 mM laterocidine in a 50 mM acetate (d6) NMR buffer (90% H2O:10% D2O, pH 4.5 or ∼100% D2O, pH 4.5). Experiments were recorded on a Bruker 600 MHz NMR spectrometer equipped with a cryoprobe and Z axis gradient. 2D ^13C HSQC and 2D ^13C–^1H H2BC were recorded using gradients for coherence selection and sensitivity enhancement and additional presaturation of the solvent signal when required. 1D ^1H, 2D ^1H–^1H NOESY (with mixing times 35–200 ms), and 2D ^1H–^1H TOCSY experiments (mixing time 70 ms) used an excitation sculpting, DPFGSE sequence for water suppression.[51] Typical acquisition times for the 2D ^1H–^1H NOESY experiments were 524 ms (t2) and 40 ms (t1). For transferred LPS experiments, NMR data was recorded at 23–25 °C which was optimized for the least amide peak overlap. 2D ^1H–^1H NOESY spectra for the free peptide were also recorded at 23 °C. Spectra were processed with nmrPipe[52] or Topspin and analyzed with Xeasy[53] or NMRFAM Sparky.[54] Backbone assignments were made using the standard sequential NOE based assignment strategy using 2D ^1H–^1H TOCSY and 2D ^1H–^1H NOESY data. Side chain assignments were further aided using the 2D ^13C–^1H H2BC experiment. 1D ^1H STD experiments were recorded using excitation sculpting for water suppression. […]

A. baumannii 5075R = type: cell-based; conditions: lipid A modified with phosphoethanolamine
K. pneumoniae = type: cell-based
Procedure: (§2) MICs for laterocidine and its various analogues were determined by broth microdilution[49] for the following polymyxin-susceptible ATCC and clinical isolates: P. aeruginosa FADDI-PA022, FADDI-PA001, FADDI-PA025, FADDI-PA070, FADDI-PA060; A. baumannii FADDI-AB134, FADDI-AB034, FADDI-AB030, FADDI-AB174, FADDI-AB241; K. pneumoniae FADDI-KP032, FADDI-KP022, BM1, FADDI-KP065, FADDI-KP064, FADDI-KP003; and E. cloacae FADDI-EC001, FADDI-EC003, and FADDI-EC006. Experiments were performed with cation-adjusted Mueller–Hinton broth (CAMHB) in 96-well polystyrene microtiter plates. Wells were inoculated with 100 μL of bacterial suspension prepared in CAMHB (containing ∼10^6 CFU/mL) and 100 μL of CAMHB containing increasing concentrations of polymyxins (0–32 μg/mL). MIC measurements were performed in duplicate, with the MIC being the lowest concentration at which visible growth was inhibited following 18–20 h of incubation at 37 °C. Bacterial killing kinetics was investigated over 24 h as described previously.[50]

[6] = test system: Gram-negative strains of P. aeruginosa, A. baumannii, K. pneumoniae, and E. cloacae; type: cell-based
Procedure: as §2

P. aeruginosa = type: cell-based
Procedure: as §2

E. cloacae = type: cell-based
Procedure: as §2

P. aeruginosa PAO1 [7] = test: Static time-kill study; type: cell-based
Procedure: as §2

P. aeruginosa PAO1R [8] = test: Static time-kill study; type: cell-based; conditions: 8 × MIC, over 24 h
Procedure: as §2

[9] = listed as Laterocidine (peptide 1)

## CC[C@H](C)[C@@H]1NC(=O)[C@@H](NC(=O)[C@H](Cc2c[nH]c3ccccc23)NC(=O)[C@@H](CCCN)NC(=O)CNC(=O)[C@H](CCCN)NC(=O)[C@@H](CCCN)NC(=O)[C@@H](Cc2c[nH]c3ccccc23)NC(=O)[C@@H](Cc2ccc(O)cc2)NC(=O)[C@@H](CO)NC(=O)CCCCCC(C)C)[C@@H](C)OC(=O)CNC(=O)CNC(=O)[C@H](CC(N)=O)NC1=O [Laterocidine] ({Octanoyl(7-Me)}-[dS][dY][dW][dOrn][Orn]G[dOrn]WTINGG; ester 9-C)
[1]; listed as Peptide 1
  Bacteria load in blood: 16.93%
[1]; listed as peptide 1
  Bacteria load in blood: 16.9%
P. aeruginosa PAO1 [2]
  MIC, P. aeruginosa PAO1: 8 µg/mL (≈ 4.98 µM)
P. aeruginosa PAO1R [3]
  MIC, P. aeruginosa PAO1R: 8 µg/mL (≈ 4.98 µM)
Female Swiss mice
  maximum tolerable dose (MTD), Iv (Bolus): 13.2 mg/kg
[4]
  MIC, A. baumannii 5075 S: 8 µg/mL (≈ 4.98 µM)
P. aeruginosa PAO1 [5]; 1 × MIC (2 μg/mL)
  membrane integrity (propidium iodide fluorescence): no loss of membrane permeability
  metabolic activity (CTC fluorescence): unaffected
P. aeruginosa PAO1 [5]; 1 × and 8 × MIC
  intracellular oxidative stress (CellROX Green): increase at both 1 × and 8 × MIC
  membrane potential (DiBAC fluorescence): extensive loss of membrane potential at each concentration
P. aeruginosa PAO1 [5]; 8 × MIC (16 μg/mL)
  membrane integrity (propidium iodide fluorescence): substantial increase in permeability
  metabolic activity (CTC fluorescence): markedly reduced
A. baumannii 5075D
  MIC, A. baumannii 5075 D: 32 µg/mL (≈ 19.9 µM)
A. baumannii 5075D; [9]
  MIC, A. baumannii 5075 D: > 32 µg/mL
E. coli O111:B4 LPS
  binding affinity to LPS (line broadening in 1H NMR titration): weak to moderate binding affinity
A. baumannii 5075R
  MIC, A. baumannii 5075 R: 32 µg/mL (≈ 19.9 µM)
A. baumannii 5075R; [9]
  MIC, A. baumannii 5075 R: > 32 µg/mL
K. pneumoniae
  MICs against K. pneumoniae (range over strains): 1 to 4 µg/mL
[6]
  MICs against the MDR strains (range): 1 to 16 µg/mL
P. aeruginosa
  MICs against P. aeruginosa (range over strains): 4 to 8 µg/mL
E. cloacae
  MICs against E. cloacae (range over strains): 1 to 2 µg/mL
P. aeruginosa PAO1 [7]; 4 × MIC, 24 h
  regrowth at 24 h, P. aeruginosa PAO1: ~2 log 10 CFU/mL
P. aeruginosa PAO1 [7]; 8 × MIC, over 24 h
  time-kill outcome against P. aeruginosa PAO1: bacterial eradication was achieved at 24 h
P. aeruginosa PAO1R [8]
  time-kill outcome against P. aeruginosa PAO1R: substantial regrowth occurring at all concentrations
